The target in data set [1] is T1, squalene synthetase (Homo sapiens, UniProt P37268).
T1 construct: This suspension was used as the enzyme solution; endogenous in cells; host or cells: HepG2 human hepatic carcinoma cells; membrane fraction (105000×g sediment) of the sonicate
T1 sequence (P37268 1-417): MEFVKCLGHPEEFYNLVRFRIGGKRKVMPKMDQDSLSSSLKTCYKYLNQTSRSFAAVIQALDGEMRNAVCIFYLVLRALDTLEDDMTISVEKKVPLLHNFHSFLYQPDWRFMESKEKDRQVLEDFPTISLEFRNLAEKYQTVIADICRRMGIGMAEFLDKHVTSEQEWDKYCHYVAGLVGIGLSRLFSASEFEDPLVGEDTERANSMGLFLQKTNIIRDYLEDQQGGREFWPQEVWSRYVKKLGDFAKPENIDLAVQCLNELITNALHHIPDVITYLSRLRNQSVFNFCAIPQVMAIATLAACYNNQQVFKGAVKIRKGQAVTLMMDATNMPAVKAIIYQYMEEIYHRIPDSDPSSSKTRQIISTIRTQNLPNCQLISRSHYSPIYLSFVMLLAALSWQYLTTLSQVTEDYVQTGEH
The data set is described as follows: Squalene synthetase inhibitory activity (human-derived enzyme prepared from HepG2 cells). The format is biochemical. Conditions: [1-3H] farnesyl pyrophosphate, 37° C., 45 minutes, read-out: Inhibitory Activity (IC50, 10^−9 M). The protocol: The squalene synthetase inhibitory activity was assayed as follows with the enzyme solutions prepared in accordance with the method described below.
More specifically, an enzyme solution (protein content 0.8 μg) prepared in accordance with the method described below was added to a solution (total volume 50 μl)) containing 5 μM [1-^3H] farnesyl pyrophosphate (specific activity 25 μCi/mole), 1 mM NADPH (nicotinamide adenine dinucleotide phosphate of reduced type), 5 mM MgCl2, 6 mM glutathione, a 100 mM buffer solution of potassium phosphate (pH 7.4) and a test drug (used as an aqueous solution or a DMSO solution), then the reaction was allowed to proceed at 37° C. for 45 minutes. To the reaction mixture was added 150 μl of a mixture of chloroform and methanol (1:2) to suspend the reaction, followed by adding 50 Al of chloroform and 50 μl of a 3N solution of sodium hydroxide. 50 μl of the chloroform layer (lower layer) containing the reaction mixture having squalene as the principal component and 3 ml of toluene-based liquid scintillator were mixed, and its radioactivity was determined by means of a liquid scintillation counter.
The squalene synthetase inhibitory activity was expressed in terms of the concentration inhibiting by 50% the radioactivity taken into the chloroform layer (IC50, molar concentration (M)), as shown in Table 7. Preparation of human-derived enzyme
Human hepatic carcinoma cells HepG2 (about 1×10^9 cells) obtained by incubation on a Dulbecco-modified Eagle's medium (37° C. in the presence of 5% CO2) containing 10% fetal bovine serum were suspended in 10 ml of an ice-cooled buffer solution (100 mM potassium phosphate buffer (pH 7.4), 30 mM nicotinamide and 2.5 mM MgCl2]. The cells were crashed by means of ultrasonication (for 30 seconds, twice). The sonicate thus obtained was subjected to centrifugation for 20 minutes (4° C.) with 10000×g. The supernatant layer was subjected to further centrifugation for 90 minutes (4° C.) with 105000×g. The sediment was then suspended in an ice-cooled 100 mM potassium phosphate buffer (pH 7.4), which was again subjected to centrifugation for 90 minutes (4° C.) with 105000×g. This fraction was suspended in an ice-cooled 100 mM potassium phosphate buffer solution (pH 7.4) (about 4 mg/ml protein concentration). This suspension was used as the enzyme solution.

Structures can show the parent of a compound that is named as a salt.

Consider `CCOP(=O)(CNC(=O)C[C@H]1O[C@H](c2cccc(OC)c2OC)c2cc(Cl)ccc2N(CC(C)(C)CO)C1=O)OCC`, for which the melting point fell in the range of 138 to 140 °C.

For `CCC(C)[C@H](NC(=O)C[C@H]1O[C@H](c2cccc(OC)c2OC)c2cc(Cl)ccc2N(CC(C)(C)C)C1=O)C(=O)O` (stereo partly drawn) [Compound 4-8], the melting point lay within 137 to 139 °C. Moreover, the IC50 in data set [1] was 11 nM.

Turning to `COc1cccc([C@H]2O[C@H](CC(=O)N[C@@H](CCC(=O)O)C(=O)O)C(=O)N(CC(C)(C)C)c3ccc(Cl)cc32)c1OC` [Compound 4-9], the melting point was 152 to 155 °C. The IC50 in data set [1] is 11 nM.

Turning to `COc1cccc([C@H]2O[C@H](CC(=O)N[C@@H](CC(=O)O)C(=O)O)C(=O)N(CC(C)(C)C)c3ccc(Cl)cc32)c1OC` [Compound 4-10], the melting point was 145 to 150 °C. Also, the IC50 in data set [1] was found to be 11 nM.

`COc1cccc([C@H]2O[C@H](CC(=O)N(C)CC(=O)O)C(=O)N(CC(C)(C)C)c3ccc(Cl)cc32)c1OC` [Compound 4-12] displayed a melting point of 134 to 136 °C. Further, the concentration for half-maximal inhibition (IC50) in data set [1] is 11 nM.

Compound `COc1cccc([C@H]2O[C@H](CC(=O)N[C@@H](Cc3ccccc3)C(=O)O)C(=O)N(CC(C)(C)C)c3ccc(Cl)cc32)c1OC` [Compound 4-15] displayed a melting point of 134 to 136 °C. Further, the IC50 in data set [1] amounted to 19 nM.

`COc1cccc([C@H]2O[C@H](CC(=O)N3CCC(=CC(=O)O)CC3)C(=O)N(CC(C)(C)C)c3ccc(Cl)cc32)c1OC` [Compound 4-18] displayed a melting point of 228 to 230 °C. In addition, the IC50 in data set [1] worked out at 18 nM.

Turning to `COc1cccc([C@H]2O[C@H](CC(=O)N3CCC(O)(C(=O)O)CC3)C(=O)N(CC(C)(C)C)c3ccc(Cl)cc32)c1OC` [Compound 4-19], the melting point is 156 to 159 °C. For the same compound, the IC50 in data set [1] is 18 nM.

The compound `COc1cccc([C@H]2O[C@H](CC(=O)N3CCC(O)(CC(=O)O)CC3)C(=O)N(CC(C)(C)C)c3ccc(Cl)cc32)c1OC` [Compound 4-20] yielded a melting point of 163 to 166 °C. The 50% inhibitory concentration (IC50) in data set [1] came out at 17 nM.

In turn, `COc1cccc([C@H]2O[C@H](CC(=O)NCCC(=O)O)C(=O)N(CC(C)(C)C)c3ccc(Cl)cc32)c1OC` [Compound 4-21] yielded a melting point of 165 to 167 °C. Further, the IC50 in data set [1] turned out to be 11 nM.

Compound `COc1cccc([C@H]2O[C@H](CC(=O)NCC(O)CC(=O)O)C(=O)N(CC(C)(C)C)c3ccc(Cl)cc32)c1OC` (stereo partly drawn) [Compound 4-24] gave a melting point of 122 to 124 °C. For the same compound, the IC50 in data set [1] was 14 nM.

In turn, `COc1cccc([C@H]2O[C@H](CC(=O)N[C@@H](Cc3ccc(O)cc3)C(=O)O)C(=O)N(CC(C)(C)C)c3ccc(Cl)cc32)c1OC` [Compound 4-26] registered a melting point of 160 to 162 °C. Further, the IC50 in data set [1] amounted to 15 nM.

For the compound `COc1cccc([C@H]2O[C@H](CC(=O)N[C@H](C(=O)O)C(C)C)C(=O)N(CC(C)(C)C)c3ccc(Cl)cc32)c1OC` [Compound 4-29], the melting point was 129 to 132 °C. Moreover, the IC50 in data set [1] amounted to 15 nM.

`COc1cccc([C@H]2O[C@H](CC(=O)N[C@@H](CC(C)C)C(=O)O)C(=O)N(CC(C)(C)C)c3ccc(Cl)cc32)c1OC` [Compound 4-30]: the melting point is 87 to 92 °C. The IC50 in data set [1] came out at 12 nM.

The compound `COc1cccc([C@H]2O[C@H](CC(=O)N3CCN(CC(=O)O)C(=O)C3)C(=O)N(CC(C)(C)C)c3ccc(Cl)cc32)c1OC` [Compound 4-31] came in with a melting point of 162 to 164 °C. For the same compound, the IC50 in data set [1] turned out to be 20 nM.

As for `COc1cccc([C@H]2O[C@H](Cc3nnn[nH]3)C(=O)N(CC(C)(C)C)c3ccc(Cl)cc32)c1OC` [Compound 7, (3R,5S)-7-Chloro-5-(2,3-dimethoxyphenyl)-1-neopentyl-1,2,3,5-tetrahydro-3-[1H(or 3H)-tetrazol-5-yl]methyl-4,1-benzoxazepin-2-one], the melting point was 148 to 150 °C. The IC50 in data set [1] came out at 11 nM.

On to `COc1cccc([C@H]2O[C@H](Cc3nc(=O)o[nH]3)C(=O)N(CC(C)(C)C)c3ccc(Cl)cc32)c1OC` [Compound 8, (3R,5S)-7-Chloro-5-(2,3-dimethoxyphenyl)-1-neopentyl-3-(2,5-dihydro-5-oxo-1,2,4-oxadiazol-3-yl) methyl-1,2,3,5-tetrahydro-4,1-benzoxazepin-2-one], for which the melting point was in the range of 130 to 133 °C. Moreover, the IC50 in data set [1] was 12 nM.

Take `COc1cccc([C@H]2O[C@H](Cc3nnn[nH]3)C(=O)N(CC(C)(C)C)c3ccc(Cl)cc32)c1OC` [Compound 9, (3R, 5S)-7-Chloro-5-(2,3-dimethoxyphenyl)-1-neopentyl-1,2,3,5-tetrahydro-3-(tetrazol-5-yl)methyl-4,1-benzoxazepin-2-one sodium salt]: the IC50 in data set [1] came to 9.5 nM.

`COc1cccc([C@H]2O[C@H](Cc3nnn[nH]3)C(=O)N(CC(C)(C)CO)c3ccc(Cl)cc32)c1OC` [Compound 11, (3R, 5S)-7-Chloro-5-(2,3-dimethoxyphenyl)-1-(3-hydroxy-2,2-dimethylpropyl)-1,2,3,5-tetrahydro-3-[1H (or 3H)-tetrazol-5-yl]methyl-4,1-benzoxazepin-2-one] came in with a melting point of 158 to 160 °C.

Turning to `COc1cccc([C@H]2O[C@H](CC(=O)N3CCC(C(=O)O)CC3)C(=O)N(CC(C)(C)CO)c3ccc(Cl)cc32)c1OC` [Compound 13-2], the IC50 in data set [1] came out at 18 nM.

As to `COc1cccc([C@H]2O[C@H](CC(=O)NS(=O)(=O)c3ccccc3C)C(=O)N(CC(C)(C)C)c3ccc(Cl)cc32)c1OC` [Compound 17-1], the IC50 in data set [1] came out at 13 nM.

In turn, `COc1cccc([C@H]2O[C@H](CC(=O)NS(=O)(=O)c3ccccc3)C(=O)N(CC(C)(C)C)c3ccc(Cl)cc32)c1OC` [Compound 17-2] had a melting point of 158 to 161 °C. The IC50 in data set [1] came to 9.3 nM.

Compound `COc1cccc([C@H]2O[C@H](CC(=O)NS(=O)(=O)C(C)C)C(=O)N(CC(C)(C)C)c3ccc(Cl)cc32)c1OC` [Compound 17-3] had a melting point of 149 to 150 °C. The IC50 in data set [1] was found to be 11 nM.

For the compound `CCS(=O)(=O)NC(=O)C[C@H]1O[C@H](c2cccc(OC)c2OC)c2cc(Cl)ccc2N(CC(C)(C)C)C1=O` [Compound 17-4], the melting point lay within 135 to 140 °C. For the same compound, the IC50 in data set [1] was determined as 9.3 nM.

On to `COc1cccc([C@H]2O[C@H](CC(=O)N3CCC(C(=O)NS(C)(=O)=O)CC3)C(=O)N(CC(C)(C)C)c3ccc(Cl)cc32)c1OC` [Compound 18], for which the melting point was in the range of 187 to 189 °C. The IC50 in data set [1] came to 15 nM.

On to `COc1cccc([C@H]2O[C@H](CC(=O)NS(C)(=O)=O)C(=O)N(CC(C)(CO)CO)c3ccc(Cl)cc32)c1OC` [Compound 20, (3R,5S)-N-methylsulfonyl-7-chloro-5-(2,3-dimethoxyphenyl)-1-(3-hydroxy-2-hydroxymethyl-2-methylpropyl)-2-oxo-1,2,3,5-tetrahydro-4,1-benzoxazepine-3-acetamide], for which the IC50 in data set [1] turned out to be 48 nM.

Consider `COc1cccc([C@H]2O[C@H](CC(=O)NCP(=O)(O)O)C(=O)N(CC(C)(C)CO)c3ccc(Cl)cc32)c1OC` [Compound 27, (3R,5S)-N-phosphonomethyl-7-chloro-5-(2,3-dimethoxyphenyl)-1-(3-hydroxy-2,2-dimethylpropyl)-2-oxo-1,2,3,5-tetrahydro-4,1-benzoxazepine-3-acetamide], for which the IC50 in data set [1] came to 20 nM.

Turning to `COc1cccc([C@H]2O[C@H](CC(=O)NS(C)(=O)=O)C(=O)N(CC(C)(C)COC(C)=O)c3ccc(Cl)cc32)c1OC` [Compound 41, (3R,5S)-N-Methylsulfonyl-1-(3-acetoxy-2,2-dimethylpropyl)-7-chloro-5-(2,3-dimethoxyphenyl)-2-oxo-1,2,3,5-tetrahydro-4,1-benzoxazepine-3-acetamide], the melting point was in the range of 108 to 112 °C.

Values taken from US6613761B1, “Benzoxazepine compounds, their production and use” (Takeda Chemical Industries, Ltd., priority 1995, dated 2003).
